#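 All cell lines were grown in 96-well plates and treated with compound for 48 hours. GI50: concentration for 50% inhibition of growth. TGI denotes the concentration required for complete inhibition of growth.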
# Experiments:
# Test in all cases: NCI tumour cell line growth inhibition, 48 h
# 786-0 renal = test system: 786-0 renal
# A498 renal = test system: A498 renal
# A549 NSCLC = test system: A549 NSCLC
# ACHN renal = test system: ACHN renal
# BT-549 breast = test system: BT-549 breast
# CAKI-1 renal = test system: CAKI-1 renal
# CCRF-CEM leukemia = test system: CCRF-CEM leukemia
# COLO 205 colon = test system: COLO 205 colon
# DU-145 prostate = test system: DU-145 prostate
# EKVX NSCLC = test system: EKVX NSCLC
# HCC-2998 colon = test system: HCC-2998 colon
# HCT-116 colon = test system: HCT-116 colon
# HCT-15 colon = test system: HCT-15 colon
# HL-60(TB) leukemia = test system: HL-60(TB) leukemia
# HOP-62 NSCLC = test system: HOP-62 NSCLC
# HOP-92 NSCLC = test system: HOP-92 NSCLC
# HS 578T breast = test system: HS 578T breast
# HT29 colon = test system: HT29 colon
# IGROV1 ovarian = test system: IGROV1 ovarian
# K-562 leukemia = test system: K-562 leukemia
# KM12 colon = test system: KM12 colon
# LOX IMVI melanoma = test system: LOX IMVI melanoma
# M14 melanoma = test system: M14 melanoma
# MALME-3M melanoma = test system: MALME-3M melanoma
# MCF7 breast = test system: MCF7 breast
# MDA-MB-231 breast = test system: MDA-MB-231 breast
# MDA-MB-435 = test system: MDA-MB-435
# MOLT-4 leukemia = test system: MOLT-4 leukemia
# NCI-H226 lung = test system: NCI-H226 lung
# NCI-H23 lung = test system: NCI-H23 lung
# NCI-H460 lung = test system: NCI-H460 lung
# NCI-H522 lung = test system: NCI-H522 lung
# NCI/ADR-RES ovarian = test system: NCI/ADR-RES ovarian
# OVCAR-3 ovarian = test system: OVCAR-3 ovarian
# OVCAR-4 ovarian = test system: OVCAR-4 ovarian
# OVCAR-5 ovarian = test system: OVCAR-5 ovarian
# OVCAR-8 ovarian = test system: OVCAR-8 ovarian
# PC-3 prostate = test system: PC-3 prostate
# SF-268 CNS = test system: SF-268 CNS
# SF-295 CNS = test system: SF-295 CNS
# SF-539 CNS = test system: SF-539 CNS
# SK-MEL-2 melanoma = test system: SK-MEL-2 melanoma
# SK-MEL-28 melanoma = test system: SK-MEL-28 melanoma
# SK-MEL-5 melanoma = test system: SK-MEL-5 melanoma
# SK-OV-3 ovarian = test system: SK-OV-3 ovarian
# SN12C renal = test system: SN12C renal
# SNB-19 CNS = test system: SNB-19 CNS
# SNB-75 CNS = test system: SNB-75 CNS
# SR leukemia = test system: SR leukemia
# SW-620 colon = test system: SW-620 colon
# T-47D breast = test system: T-47D breast
# TK-10 renal = test system: TK-10 renal
# U251 CNS = test system: U251 CNS
# UACC-257 melanoma = test system: UACC-257 melanoma
# UACC-62 melanoma = test system: UACC-62 melanoma
# UO-31 renal = test system: UO-31 renal
structure (smiles),measurement,setting,value
CC(Nc1c(C#N)cnc2ccc(-c3cncc(O)c3)cc12)c1ccccc1 (configuration not stated),GI50,786-0 renal,2.74 µM
same,TGI,786-0 renal,10.4 µM
same,GI50,A498 renal,2.72 µM
same,TGI,A498 renal,18 µM
same,GI50,A549 NSCLC,3.57 µM
same,TGI,A549 NSCLC,47.3 µM
same,GI50,ACHN renal,1.4 µM
same,TGI,ACHN renal,10.7 µM
same,GI50,BT-549 breast,0.547 µM
same,TGI,BT-549 breast,4.54 µM
same,GI50,CAKI-1 renal,2.24 µM
same,TGI,CAKI-1 renal,13.5 µM
same,GI50,CCRF-CEM leukemia,2.4 µM
same,TGI,CCRF-CEM leukemia,> 100 µM
same,GI50,COLO 205 colon,14.9 µM
same,TGI,COLO 205 colon,36.1 µM
same,GI50,DU-145 prostate,1.48 µM
same,TGI,DU-145 prostate,10.6 µM
same,GI50,EKVX NSCLC,2.07 µM
same,TGI,EKVX NSCLC,12.6 µM
same,GI50,HCC-2998 colon,3.73 µM
same,TGI,HCC-2998 colon,14.8 µM
same,GI50,HCT-116 colon,2.4 µM
same,TGI,HCT-116 colon,12.4 µM
same,GI50,HCT-15 colon,1.69 µM
same,TGI,HCT-15 colon,11.5 µM
same,GI50,HL-60(TB) leukemia,4.22 µM
same,TGI,HL-60(TB) leukemia,> 100 µM
same,GI50,HOP-62 NSCLC,2.39 µM
same,TGI,HOP-62 NSCLC,16 µM
same,GI50,HOP-92 NSCLC,0.409 µM
same,TGI,HOP-92 NSCLC,6.02 µM
same,GI50,HS 578T breast,1.08 µM
same,TGI,HS 578T breast,4.82 µM
same,GI50,HT29 colon,18.1 µM
same,TGI,HT29 colon,> 100 µM
same,GI50,IGROV1 ovarian,0.948 µM
same,TGI,IGROV1 ovarian,3.91 µM
same,GI50,K-562 leukemia,2.51 µM
same,TGI,K-562 leukemia,> 100 µM
same,GI50,KM12 colon,3.09 µM
same,TGI,KM12 colon,12.2 µM
same,GI50,LOX IMVI melanoma,1.31 µM
same,TGI,LOX IMVI melanoma,8.51 µM
same,GI50,M14 melanoma,2.08 µM
same,TGI,M14 melanoma,11.6 µM
same,GI50,MALME-3M melanoma,0.407 µM
same,TGI,MALME-3M melanoma,3.4 µM
same,GI50,MCF7 breast,1.91 µM
same,TGI,MCF7 breast,10.2 µM
same,GI50,MDA-MB-231 breast,1.67 µM
same,TGI,MDA-MB-231 breast,11.9 µM
same,GI50,MDA-MB-435,2.94 µM
same,TGI,MDA-MB-435,15.5 µM
same,GI50,MOLT-4 leukemia,2.11 µM
same,TGI,MOLT-4 leukemia,> 100 µM
same,GI50,NCI-H226 lung,1.99 µM
same,TGI,NCI-H226 lung,13.2 µM
same,GI50,NCI-H23 lung,1.86 µM
same,TGI,NCI-H23 lung,7.88 µM
same,GI50,NCI-H460 lung,2.57 µM
same,TGI,NCI-H460 lung,11.4 µM
same,GI50,NCI-H522 lung,2.31 µM
same,TGI,NCI-H522 lung,13.5 µM
same,GI50,NCI/ADR-RES ovarian,3.36 µM
same,TGI,NCI/ADR-RES ovarian,23.5 µM
same,GI50,OVCAR-3 ovarian,1.05 µM
same,TGI,OVCAR-3 ovarian,5.84 µM
same,GI50,OVCAR-4 ovarian,1.59 µM
same,TGI,OVCAR-4 ovarian,9.49 µM
same,GI50,OVCAR-5 ovarian,4.3 µM
same,TGI,OVCAR-5 ovarian,30.7 µM
same,GI50,OVCAR-8 ovarian,1.83 µM
same,TGI,OVCAR-8 ovarian,15.4 µM
same,GI50,PC-3 prostate,1.65 µM
same,TGI,PC-3 prostate,> 100 µM
same,GI50,SF-268 CNS,1.99 µM
same,TGI,SF-268 CNS,12 µM
same,GI50,SF-295 CNS,2.87 µM
same,TGI,SF-295 CNS,11.7 µM
same,GI50,SF-539 CNS,2.14 µM
same,TGI,SF-539 CNS,11 µM
same,GI50,SK-MEL-2 melanoma,2.03 µM
same,TGI,SK-MEL-2 melanoma,6.44 µM
same,GI50,SK-MEL-28 melanoma,1.86 µM
same,TGI,SK-MEL-28 melanoma,10.8 µM
same,GI50,SK-MEL-5 melanoma,1.24 µM
same,TGI,SK-MEL-5 melanoma,2.57 µM
same,GI50,SK-OV-3 ovarian,3.38 µM
same,TGI,SK-OV-3 ovarian,10.7 µM
same,GI50,SN12C renal,0.721 µM
same,TGI,SN12C renal,6.68 µM
same,GI50,SNB-19 CNS,1.9 µM
same,TGI,SNB-19 CNS,7.66 µM
same,GI50,SNB-75 CNS,0.961 µM
same,TGI,SNB-75 CNS,17.6 µM
same,GI50,SR leukemia,2.26 µM
same,TGI,SR leukemia,> 100 µM
same,GI50,SW-620 colon,3.56 µM
same,TGI,SW-620 colon,11.4 µM
same,GI50,T-47D breast,1.68 µM
same,TGI,T-47D breast,13.8 µM
same,GI50,TK-10 renal,4.45 µM
same,TGI,TK-10 renal,50 µM
same,GI50,U251 CNS,1.88 µM
same,TGI,U251 CNS,17.1 µM
same,GI50,UACC-257 melanoma,4.32 µM
same,TGI,UACC-257 melanoma,45.6 µM
same,GI50,UACC-62 melanoma,1.7 µM
same,TGI,UACC-62 melanoma,4.16 µM
same,GI50,UO-31 renal,0.408 µM
same,TGI,UO-31 renal,5.61 µM

# Source: PubChem BioAssay (NCI)
